According to US8691986B2, “Azetidine and piperidine compounds useful as PDE10 inhibitors” (Amgen Inc., priority 2012, dated 2014):

Assays:
human PDE10A2 = human PDE10A2 (Homo sapiens (Human), UniProt Q9Y233); test: PDE10A enzyme inhibition, PDE IMAP TR-FRET assay; assay type: biochemical; conditions: FAM-cAMP substrate
Experimental: An IMAP TR-FRET assay was used to analyze the enzyme activity (Molecular Devices Corp., Sunnyvale Calif.). 10 μL of serial diluted PDE10A (BPS Bioscience, San Diego, Calif.) or tissue homogenate was incubated with equal volumes of diluted fluorescein labeled cAMP or cGMP for 90 min in 384-well Polypropylene assay plates (Greiner, Monroe, N.C.) at room temperature. After incubation, the reaction was stopped by adding 55 μL of diluted binding reagents and was incubated for 4 hours to overnight at room temperature. The plates were read on an Envision (Perkin Elmer, Waltham, Mass.) for time resolved fluorescence resonance energy transfer. The data were analyzed with Genedata Screener® (Lexington, Mass.).
To check the inhibition profile, 0.2 μL of serial diluted compounds were incubated with 10 μL of diluted PDE10 enzyme (BPS Bioscience, San Diego, Calif.) or tissue homogenate in a 384-well Polypropylene assay plate (Greiner, Monroe, N.C.) for 60 min at room temperature. After incubation, 10 μL of diluted fluorescein labeled cAMP or cGMP substrate was added and incubated for 90 min at room temperature. The reaction was stopped by adding 55 μL of diluted binding reagents and plates were read on an Envision (Perkin Elmer, Waltham, Mass.) for time resolved fluorescence resonance energy transfer. The data were analyzed with Genedata Screener® (Lexington, Mass.).
Purified human PDE2A1 and PDE10A2 enzymes were obtained from BPS Bioscience (San Diego, Calif.). IMAP™ TR-FRET progressive binding system, FAM-cAMP substrate were from Molecular Devices (Sunnyvale, Calif.).
The PDE IMAP assay was conducted in a 384-well black Greiner polypropylene plate (Sigma, St. Louis, Mo.). PDE inhibitors were serial diluted in 100% DMSO and dispensed into assay plate at […] per well using Echo® Liquid Handling System from LABCYTE. Ten μL of PDE enzyme in IMAP reaction buffer (10 mM Tris-HCl, pH 7.2, 10 mM MgCl2, 0.05% NaN3, and 0.01% Tween-20) was added into the assay wells. The PDE enzyme concentration used was based on each lot of enzyme activity, to ensure enzyme reaction falls in a linear range under assay condition. 1.4 nM of PDE2 or 8 μM PDE10 were used in the assay system. […] Enzyme reaction was allowed to proceed at room temperature for 90 min, and the reaction is stopped by 55 μl addition of binding reagent according to manufacturer's recommendation. The mixture is further incubated at room temperature for additional 4 hours, and signal was read on an Envision multimode reader (PerkinElmer). Fluorescence signals were measured at 520 nm and 485 nm. The signal ratio at 520/485 nm corresponded to the generation of reaction product of AMP, and it was used in all data analysis. Values from DMSO-treated wells were normalized to POC=100, and no-enzyme wells were normalized to POC=0. IC50 values were determined by using the Genedata Screener V9.0.1. The curve fitting algorithm used for dose response data analysis in Genedata Screener is a custom implementation of a robust curve-fitting algorithm called ROUT (Robust regression with outlier detection) and uses a four-parameter logistical (4 PL) Hill model.

rat MDR1 (mdr1a, P-gp) = test: Transcellular transport in rat mdr1a-transfected LLC-PK1 cells; assay type: in vitro ADME; conditions: pH 7.4, mdr1a-LLC-PK1, 5 μM test compound
Experimental: (§1) Digoxin and mannitol were purchased from Sigma-Aldrich (St. Louis, Mo.). 3H-digoxin and 14C-mannitol were purchased from PerkinElmer Life and Analytical Sciences (Boston, Mass.). Transport buffer was prepared using Hank's balanced salt solution (HBSS) supplemented with 10 mM Hepes, pH 7.4 and 0.1% BSA (HHBSS, Invitrogen, Grand Island, N.Y., BSA, Bovine Serum Albumin, Calbiochem, La Jolla, Calif.).
(§2) Cultures were incubated at 37° C. in a humidified (95% relative humidity) atmosphere of 5% CO2/95% air. The parental cell line LLC-PK1 (porcine renal epithelial cells) was purchased from American Type Culture Collection (ATCC, Manassas, Va.). Human MDR1 and Sprague-Dawley rat mdra1 transfectants in LLC-PK1 were generated at Amgen (Thousand Oaks, Calif.). Cells were cultured in Medium 199 supplemented with 2 mM L-glutamine, penicillin (50 units/mL), streptomycin (50 μg/mL), and 10% (v/v) fetal bovine serum (all from Invitrogen) (Schinkel et al, 1995).
(§3) LLC-PK1, MDR1-LLC-PK1, and mdr1a-LLC-PK1 cell monolayers were seeded onto porous (1.0 μm) polycarbonate 96-well transwell membrane filters (Millipore Corp., Billerica, Mass.) and cultured for six days with one media replacement on day four prior to transwell experiments. Cells were washed once with warmed HHBS prior to transwell experiments. Experiments were initiated by replacing the buffer in each compartment with 0.15 mL of HBSS containing 0.1% BSA with and without 5 μM of test compound in triplicate wells. The plates were incubated for two hours at 37° C. in an EVO incubator with shaking. Aliquots (100 μl) from both donor and receiver chambers were transferred to 96 well plates or scintillation vials. Protein was precipitated by addition of 200 μL acetonitrile containing 0.1% formic acid and prazosin (25 ng/mL) as internal standard. After vortexing and centrifugation at 3000 rpm for 20 min, 150 μL supernatant samples were transferred to a new plate containing 50 μL water for LC-MS/MS analysis. Transcellular transport of 3H-Digoxin was used as a positive control for Pgp. Paracellular permeability of 14C-Mannitol was used to measure the integrity of the monolayer. Sample radioactivity was measured using a liquid scintillation counter (Packard Tri-Carb 2910TR, PerkinElmer).
(§4) The apparent permeability coefficient (Papp) of all tested agents was estimated from the slope of cumulative amount (dQ) of the agent vs. time (dt), and the equation: Papp=(dQ/dt)/(A*C0)
(§5) where dQ/dt is the penetration rate of the agent […], A is the surface area of the cell layer on the Transwell (0.11 cm2), and CO is the initial concentration of the test compound (μM).

human MDR1 (P-gp) = human MDR1 (P-gp) (Homo sapiens (Human), UniProt P08183); test: Transcellular transport in human MDR1-transfected LLC-PK1 cells; assay type: in vitro ADME; conditions: pH 7.4, MDR1-LLC-PK1, 5 μM test compound
human MDR1 (P-gp), sequence (P08183 whole entry): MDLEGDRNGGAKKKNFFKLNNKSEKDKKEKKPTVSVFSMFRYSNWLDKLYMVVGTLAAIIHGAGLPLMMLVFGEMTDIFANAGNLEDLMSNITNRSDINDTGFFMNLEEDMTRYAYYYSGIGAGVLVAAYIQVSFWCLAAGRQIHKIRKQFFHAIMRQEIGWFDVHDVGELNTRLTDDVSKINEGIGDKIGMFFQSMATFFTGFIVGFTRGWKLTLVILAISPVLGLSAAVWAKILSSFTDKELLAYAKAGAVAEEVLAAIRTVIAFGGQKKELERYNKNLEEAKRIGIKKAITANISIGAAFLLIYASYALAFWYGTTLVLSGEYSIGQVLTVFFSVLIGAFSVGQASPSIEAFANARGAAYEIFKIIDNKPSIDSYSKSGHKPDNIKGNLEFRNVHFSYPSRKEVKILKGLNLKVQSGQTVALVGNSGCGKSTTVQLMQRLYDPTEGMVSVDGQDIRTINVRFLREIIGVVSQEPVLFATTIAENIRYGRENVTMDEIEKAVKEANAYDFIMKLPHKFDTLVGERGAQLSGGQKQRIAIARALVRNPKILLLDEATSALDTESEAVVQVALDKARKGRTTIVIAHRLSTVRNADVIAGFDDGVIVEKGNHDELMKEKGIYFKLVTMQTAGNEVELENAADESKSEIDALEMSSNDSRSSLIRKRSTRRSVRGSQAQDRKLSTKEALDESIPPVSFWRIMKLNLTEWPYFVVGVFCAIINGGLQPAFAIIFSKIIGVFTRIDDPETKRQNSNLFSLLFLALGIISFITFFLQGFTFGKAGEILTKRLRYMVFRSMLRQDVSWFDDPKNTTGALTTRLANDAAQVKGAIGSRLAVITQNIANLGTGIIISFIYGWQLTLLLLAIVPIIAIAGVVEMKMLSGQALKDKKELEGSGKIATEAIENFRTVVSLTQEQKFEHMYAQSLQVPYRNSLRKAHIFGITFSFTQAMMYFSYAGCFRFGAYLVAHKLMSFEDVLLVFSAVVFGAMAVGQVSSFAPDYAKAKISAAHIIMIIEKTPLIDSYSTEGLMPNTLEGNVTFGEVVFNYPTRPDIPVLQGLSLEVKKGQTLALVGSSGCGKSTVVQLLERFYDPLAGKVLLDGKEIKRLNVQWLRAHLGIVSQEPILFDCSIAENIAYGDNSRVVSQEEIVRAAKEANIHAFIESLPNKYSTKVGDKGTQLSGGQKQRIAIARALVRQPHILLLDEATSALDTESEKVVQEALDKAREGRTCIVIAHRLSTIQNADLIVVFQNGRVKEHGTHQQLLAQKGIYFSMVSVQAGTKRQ
Experimental: as §1, §2, §3, §4, §5

human PDE10A2, sequence (Q9Y233 267-1055): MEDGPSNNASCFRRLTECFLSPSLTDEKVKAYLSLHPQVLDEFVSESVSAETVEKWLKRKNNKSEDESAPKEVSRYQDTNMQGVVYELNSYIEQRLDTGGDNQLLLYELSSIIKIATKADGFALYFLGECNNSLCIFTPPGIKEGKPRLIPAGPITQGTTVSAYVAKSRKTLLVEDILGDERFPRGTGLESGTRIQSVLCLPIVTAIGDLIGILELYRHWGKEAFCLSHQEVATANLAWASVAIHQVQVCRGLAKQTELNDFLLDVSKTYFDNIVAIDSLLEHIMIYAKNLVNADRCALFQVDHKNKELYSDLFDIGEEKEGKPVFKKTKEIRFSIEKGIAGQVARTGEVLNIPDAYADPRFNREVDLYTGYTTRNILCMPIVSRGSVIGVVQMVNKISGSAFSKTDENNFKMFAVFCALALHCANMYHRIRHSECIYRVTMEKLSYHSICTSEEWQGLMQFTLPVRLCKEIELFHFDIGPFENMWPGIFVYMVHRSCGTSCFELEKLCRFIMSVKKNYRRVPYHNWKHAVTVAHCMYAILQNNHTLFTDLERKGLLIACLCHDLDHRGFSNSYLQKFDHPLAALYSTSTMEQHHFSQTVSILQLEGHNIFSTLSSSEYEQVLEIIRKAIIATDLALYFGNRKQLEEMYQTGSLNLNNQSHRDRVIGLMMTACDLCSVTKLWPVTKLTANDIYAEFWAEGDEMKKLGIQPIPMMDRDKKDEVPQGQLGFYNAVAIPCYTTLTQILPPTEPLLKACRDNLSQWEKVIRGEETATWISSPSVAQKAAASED

IC50 (human PDE10A2) [nM]	efflux ratio at 2 h, 5 μM (rat MDR1 (mdr1a, P-gp))	efflux ratio at 2 h, 5 μM (human MDR1 (P-gp))	Structure (SMILES)
28.7	2.3	2.9	CNC(=O)c1ccc(-c2nccnc2C2CCN(c3ccc4ccc(Cl)cc4n3)CC2)cc1F [Example 1, 4-(3-(1-(7-Chloroquinolin-2-Yl)Piperidin-4-Yl)Pyrazin-2-Yl)-2-Fluoro-N-Methylbenzamide]
6.3	2.7	2.4	CNC(=O)c1ccc(-c2nccnc2C2CCN(c3ccc4ccc(F)cc4n3)CC2)cc1F [Example 2, 2-Fluoro-4-(3-(1-(7-Fluoroquinolin-2-Yl)Piperidin-4-Yl) Pyrazin-2-Yl)-N-Methylbenzamide]
3.1	2.1	2	CNC(=O)c1ccc(-c2nccnc2C2CCN(c3ccc4ccccc4n3)CC2)cc1F [Example 3, 2-Fluoro-N-Methyl-4-(3-(1-(Quinolin-2-Yl)Piperidin-4-Yl)Pyrazin-2-Yl)Benzamide]
2.8	2.2	3.4	CNC(=O)c1ccc(-c2nccnc2C2CCN(c3ccc4cc(F)ccc4n3)CC2)cc1F [Example 4, 2-Fluoro-4-(3-(1-(6-Fluoroquinolin-2-Yl)Piperidin-4-Yl)Pyrazin-2-Yl)-N-Methylbenzamide]
7.5	2.3	2.5	CNC(=O)c1ccc(-c2nccnc2C2CCN(c3ccc4cccc(F)c4n3)CC2)cc1F [Example 5, 2-Fluoro-4-(3-(1-(8-Fluoroquinolin-2-Yl)Piperidin-4-Yl)Pyrazin-2-Yl)-N-Methylbenzamide]
7.6	1.2	1.8	CNC(=O)c1ccc(-c2nccnc2C2CN(c3ncc4ccccc4n3)C2)cc1F [Example 6, 2-Fluoro-N-Methyl-4-(3-(1-(Quinazolin-2-Yl)Azetidin-3-Yl)Pyrazin-2-Yl)Benzamide]
4	3.1	2.95	CNC(=O)c1ccc(-c2nccnc2C2CN(c3ccc4ccccc4n3)C2)cc1F [Example 7, 2-Fluoro-N-Methyl-4-(3-(1-(Quinolin-2-Yl)Azetidin-3-Yl) Pyrazin-2-Yl)Benzamide]
0.5	2.5	2.8	CNC(=O)c1ccc(-c2nccnc2C2CN(c3ccc4ccc(F)cc4n3)C2)cc1F [Example 8, 2-Fluoro-4-(3-(1-(7-Fluoroquinolin-2-Yl)Azetidin-3-Yl) Pyrazin-2-Yl)-N-Methylbenzamide]
30.9	2.7	1.8	CNC(=O)c1ccc(-c2nccnc2C2CN(c3ncc4ccc(F)cc4n3)C2)cc1F [Example 9, 2-Fluoro-4-(3-(1-(7-Fluoroquinazolin-2-Yl)Azetidin-3-Yl)Pyrazin-2-Yl)-N-Methylbenzamide]
5.9	1.2	1.8	CNC(=O)c1ccc(-c2nccnc2C2CN(c3ncc4ccc(Cl)cc4n3)C2)cc1F [Example 10, 4-(3-(1-(7-Chloroquinazolin-2-Yl)Azetidin-3-Yl)Pyrazin-2-Yl)-2-Fluoro-N-Methylbenzamide]
16.6	1.2	1.75	CNC(=O)c1ccc(-c2nccnc2C2CN(c3ncc4cc(F)ccc4n3)C2)cc1F [Example 11, 2-Fluoro-4-(3-(1-(6-Fluoroquinazolin-2-Yl)Azetidin-3-Yl)Pyrazin-2-Yl)-N-Methylbenzamide]
3.9	2.8	1.85	CNC(=O)c1ccc(-c2nccnc2C2CN(c3ncc4cc(F)c(Cl)cc4n3)C2)cc1F [Example 12, 4-(3-(1-(7-Chloro-6-Fluoroquinazolin-2-Yl)Azetidin-3-Yl)Pyrazin-2-Yl)-2-Fluoro-N-Methylbenzamide]
1.7	2.7	3.02	CNC(=O)c1ccc(-c2nccnc2C2CN(c3ccc4cc(F)ccc4n3)C2)cc1F [Example 13, 2-Fluoro-4-(3-(1-(6-Fluoroquinolin-2-Yl)Azetidin-3-Yl) Pyrazin-2-yl)-N-Methylbenzamide]
3.6	1.1	1.25	CNC(=O)c1ccc(-c2nccnc2C2CN(c3ccc4ncc(Cl)cc4n3)C2)cc1F [Example 14, 4-(3-(1-(7-Chloro-1,5-Naphthyridin-2-Yl)Azetidin-3-Yl)Pyrazin-2-Yl)-2-Fluoro-N-Methylbenzamide]
